How the values were obtained:
[1] = target: T1, Estrogen receptor (Homo sapiens, UniProt Q92731+P03372); test: Affinity estrogen receptor of MCF-7 human mammary cancer cells; type: cell-based; conditions: mcf7
[2] = target: T1, Estrogen receptor; test: (§1) Induction of pS2 mRNA expression in human MCF-7 mammary carcinoma cells; type: functional, cell-based; conditions: mcf7
[3] = target: T1, Estrogen receptor; test: as §1; type: functional, cell-based; conditions: mcf7; remark: listed apart in the source
[4] = target: T1, Estrogen receptor; test: Affinity for estrogen receptor; type: protein assay

| Compound | EC50 [1] [nM] | EC50 [2] [nM] | EC50 [3] [nM] | EC50 [4] [nM] |
| --- | --- | --- | --- | --- |
| C[C@]12CC[C@@H]3c4cc(CCCO)c(O)cc4CC[C@H]3[C@@H]1CC[C@@H]2O | 5220 | 495 | 0.004 | – |
| C[C@]12CC[C@@H]3c4cc(CO)c(O)cc4CC[C@H]3[C@@H]1CC[C@@H]2O | 342 | 10.3 | 2.79 | 146 |
| C[C@]12CC[C@@H]3c4cc(C=O)c(O)cc4CC[C@H]3[C@@H]1CC[C@@H]2O | 782 | – | – | – |
| C[C@]12CC[C@@H]3c4cc(CCO)c(O)cc4CC[C@H]3[C@@H]1CC[C@@H]2O | 4890 | 272 | – | – |
| C[C@]12CC[C@@H]3c4cc(O)c(O)cc4CC[C@H]3[C@@H]1CC[C@@H]2O | 1660 | 504 | – | – |

Reference: ChEMBL document CHEMBL1129570, “2-(Hydroxyalkyl)estradiols: synthesis and biological evaluation” (J Med Chem, 1996)
